Data published in ChEMBL document CHEMBL1201862, “PubChem BioAssay data set” (2004).
Active and inactive are the calls of the source.

Assays:
[1] = molecular target: Glyceraldehyde-3-phosphate dehydrogenase (Homo sapiens, UniProt P04406)
Bcl-2-related protein A1 [2] = molecular target: T1, Bcl-2-related protein A1 (Mus musculus, UniProt Q07440); test: Bfl-1 inhibitors blocking BH3 peptide binding, confirmation, biochemical, TR-FRET, mouse Bfl-1 (AID 621);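 further: TR-FRET binding of GST-Bfl-1 to FITC-labelled Bid peptide via terbium antibody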
T1 sequence (Q07440 whole entry): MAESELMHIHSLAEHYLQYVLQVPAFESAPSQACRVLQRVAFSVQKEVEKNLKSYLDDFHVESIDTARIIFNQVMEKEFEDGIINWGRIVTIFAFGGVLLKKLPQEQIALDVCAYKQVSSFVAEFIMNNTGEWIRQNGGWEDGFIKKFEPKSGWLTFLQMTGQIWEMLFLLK

Bcl-2-related protein A1 [3] = molecular target: T1, Bcl-2-related protein A1; test: Bfl-1 binding inhibitors, SAR follow-up, biochemical, fluorescence polarization (AID 1070)
Mucolipin-3 [4] = molecular target: T2, Mucolipin-3 (Homo sapiens, UniProt Q8TDD5); test: TRPML3 agonist potency, dose response, cell-based, calcium fluorescence (AID 2510); format: functional
T2 sequence (Q8TDD5 whole entry): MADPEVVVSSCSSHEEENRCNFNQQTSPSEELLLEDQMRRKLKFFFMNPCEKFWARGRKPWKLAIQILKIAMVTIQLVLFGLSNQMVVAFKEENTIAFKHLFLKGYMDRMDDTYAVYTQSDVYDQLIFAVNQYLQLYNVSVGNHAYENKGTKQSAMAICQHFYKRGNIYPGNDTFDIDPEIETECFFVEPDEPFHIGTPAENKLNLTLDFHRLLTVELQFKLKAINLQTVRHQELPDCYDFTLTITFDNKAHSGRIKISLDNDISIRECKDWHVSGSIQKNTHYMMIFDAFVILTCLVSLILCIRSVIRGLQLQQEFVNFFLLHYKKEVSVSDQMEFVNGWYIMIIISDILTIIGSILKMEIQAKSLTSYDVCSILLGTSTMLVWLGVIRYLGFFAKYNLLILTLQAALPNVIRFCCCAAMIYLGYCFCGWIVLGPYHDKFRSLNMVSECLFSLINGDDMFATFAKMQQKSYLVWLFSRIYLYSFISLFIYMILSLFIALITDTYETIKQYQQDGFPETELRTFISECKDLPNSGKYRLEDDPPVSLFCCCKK

Mucolipin-3 [5] = molecular target: T2, Mucolipin-3; test: Dose response cell-based high-throughput screening assay for agonists of the transient receptor potential channel ML3 (TRPML3). [Related pubchem assays: 1526, 1424, 1448 ]; format: functional
Ion channel NompC [6] = molecular target: T3, Ion channel NompC (Danio rerio, UniProt Q7T1G6); test: Late stage counterscreen for the probe development effort to identify selective agonists of the Transient Receptor Potential Channels 3 (TRPML3): fluorescence-based cell-based dose response assay for TRPN1 agonists.; format: functional
Ion channel NompC [7] = molecular target: T3, Ion channel NompC; test: Fluorescence counterscreen assay for TRPML3 agonists: dose response cell-based high-throughput screening assay to identify agonists of the transient receptor potential channel N1 (TRPN1). [Related pubchem assays: 1526, 1424, 1448 ]; format: functional
[8] = molecular target: T4, Dual specificity protein phosphatase 6 (Rattus norvegicus, UniProt Q64346); test: MKP-3 phosphatase inhibitors, primary screen, biochemical, rat enzyme, in vitro (AID 425)
T4 sequence (Q64346 whole entry): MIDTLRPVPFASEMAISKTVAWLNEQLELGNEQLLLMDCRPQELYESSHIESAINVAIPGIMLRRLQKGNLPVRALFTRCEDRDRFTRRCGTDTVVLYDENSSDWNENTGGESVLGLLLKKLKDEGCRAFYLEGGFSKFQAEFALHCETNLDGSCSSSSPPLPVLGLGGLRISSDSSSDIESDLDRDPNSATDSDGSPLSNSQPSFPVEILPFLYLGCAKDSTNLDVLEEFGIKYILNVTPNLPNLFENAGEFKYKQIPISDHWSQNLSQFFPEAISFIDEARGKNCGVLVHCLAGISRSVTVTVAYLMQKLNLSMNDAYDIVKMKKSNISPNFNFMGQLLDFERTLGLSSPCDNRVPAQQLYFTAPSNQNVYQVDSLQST

[9] = molecular target: T5, Heat shock factor protein 1 (Mus musculus, UniProt P38532); test: HSF1 potentiators in luciferase reporter cells, confirmation, cell-based, NIH3T3, luminescence, dose retest (AID 435004); format: functional;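 further: stress induced by proteasome inhibitor MG132 added 30 min after compound; luciferase reporter driven by HSF1 response element in NIH3T3 cells; actives raise luminescence as potentiators of the MG132 stress response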
T5 sequence (P38532 whole entry): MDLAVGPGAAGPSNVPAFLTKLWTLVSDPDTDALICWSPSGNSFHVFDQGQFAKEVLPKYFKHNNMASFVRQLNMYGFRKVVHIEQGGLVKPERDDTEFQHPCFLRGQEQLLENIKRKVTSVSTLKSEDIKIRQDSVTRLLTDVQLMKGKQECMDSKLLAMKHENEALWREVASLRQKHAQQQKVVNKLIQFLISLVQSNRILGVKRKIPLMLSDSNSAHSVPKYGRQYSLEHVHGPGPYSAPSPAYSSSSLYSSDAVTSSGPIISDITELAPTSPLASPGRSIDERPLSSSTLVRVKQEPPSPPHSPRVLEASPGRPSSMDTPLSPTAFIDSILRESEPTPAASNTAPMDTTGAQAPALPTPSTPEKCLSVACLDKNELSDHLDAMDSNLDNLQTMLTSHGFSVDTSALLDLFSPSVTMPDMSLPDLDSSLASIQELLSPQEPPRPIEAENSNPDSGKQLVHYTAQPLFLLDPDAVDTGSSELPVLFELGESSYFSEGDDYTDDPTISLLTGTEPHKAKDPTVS

[10] = Luminescence Cell-Based Dose Confirmation HTS to Identify Inhibitors of Polyadenylation.; format: functional
[11] = M. tuberculosis growth inhibition, HTS (AID 449762); format: functional
CHO-K1 = test: Counterscreen for antagonists of the orexin 1 receptor (OX1R; HCRTR1): Homogeneous time resolved fluorescence (HTRF)-based cell-based dose response assay to identify antagonists of the parental CHO-K1 cell line. [Related pubchem assays (depositor defined):AID434989, AID435008, AID463079, AID485270, AID492963, AID492964, AID492965, AID493232, AID504699, AID504701]; format: functional; details: Cricetulus griseus
[12] = Counterscreen for antagonists of the orexin 1 receptor (OX1R; HCRTR1): Fluorescence-based cell-based high throughput dose response assay to identify antagonists of the parental CHO cell line. [Related pubchem assays (depositor defined):AID434989, AID435008, AID463079, AID485270, AID492963, AID492964, AID492965, AID493232, AID504699, AID504701]; format: functional
[13] = molecular target: T6, Orexin/Hypocretin receptor type 1 (Homo sapiens, UniProt O43613); test: Homogeneous Time Resolved Fluorescence (HTRF)-based cell-based high throughput dose response assay for antagonists of the orexin 1 receptor (OX1R; HCRTR1). [Related pubchem assays (depositor defined):AID434989, AID435008, AID463079, AID485270, AID492963, AID492964, AID492965, AID493232, AID504717, AID504718]; format: functional
T6 sequence (O43613 whole entry): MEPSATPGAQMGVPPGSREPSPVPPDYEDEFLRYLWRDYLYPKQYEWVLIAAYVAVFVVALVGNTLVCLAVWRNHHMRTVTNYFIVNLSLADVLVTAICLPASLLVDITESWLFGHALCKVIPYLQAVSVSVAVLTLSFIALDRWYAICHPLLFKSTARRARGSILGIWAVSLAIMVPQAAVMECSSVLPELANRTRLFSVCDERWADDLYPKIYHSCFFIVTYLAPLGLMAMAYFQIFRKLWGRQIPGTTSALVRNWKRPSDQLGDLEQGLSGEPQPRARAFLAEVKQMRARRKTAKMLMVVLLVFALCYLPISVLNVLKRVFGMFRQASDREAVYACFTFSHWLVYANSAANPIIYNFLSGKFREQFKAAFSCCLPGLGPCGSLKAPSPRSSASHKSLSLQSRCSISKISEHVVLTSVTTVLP

[14] = molecular target: T6, Orexin/Hypocretin receptor type 1; test: Fluorescence-based cell-based high throughput dose response assay for antagonists of the orexin 1 receptor (OX1R; HCRTR1). [Related pubchem assays (depositor defined):AID434989, AID435008, AID463079, AID485270, AID492963, AID492964, AID492965, AID493232, AID504717, AID504718]; format: functional
Orexin receptor type 2 [15] = molecular target: T7, Orexin receptor type 2 (Homo sapiens, UniProt O43614); test: Counterscreen assay for antagonists of the orexin 1 receptor (OX1R; HCRTR1): Fluorescence-based cell-based dose response assay for antagonists of the orexin 2 receptor (OX2R; HCRTR2), run by assay provider.; format: functional
T7 sequence (O43614 whole entry): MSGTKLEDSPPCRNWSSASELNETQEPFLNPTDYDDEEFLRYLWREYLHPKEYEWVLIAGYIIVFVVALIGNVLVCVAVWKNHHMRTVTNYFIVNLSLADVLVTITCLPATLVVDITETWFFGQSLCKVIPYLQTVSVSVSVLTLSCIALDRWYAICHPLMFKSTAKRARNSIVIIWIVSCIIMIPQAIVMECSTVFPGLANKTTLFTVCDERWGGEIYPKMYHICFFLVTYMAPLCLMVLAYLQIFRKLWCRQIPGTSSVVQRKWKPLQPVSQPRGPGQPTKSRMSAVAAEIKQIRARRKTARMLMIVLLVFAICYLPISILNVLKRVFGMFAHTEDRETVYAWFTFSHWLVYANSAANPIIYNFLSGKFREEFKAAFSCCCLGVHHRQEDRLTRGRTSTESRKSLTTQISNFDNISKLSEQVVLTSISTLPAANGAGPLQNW

Orexin receptor type 2 [16] = molecular target: T7, Orexin receptor type 2; test: Counterscreen assay for antagonists of the orexin 1 receptor (OX1R; HCRTR1): Homogeneous Time Resolved Fluorescence (HTRF)-based cell-based dose response assay for antagonists of the orexin 2 receptor (OX2R; HCRTR2), run by assay provider.; format: functional
[17] = molecular target: 5-hydroxytryptamine receptor 1E (Homo sapiens, UniProt P28566); test: Counterscreen assay for S1P3 antagonists: Dose response cell-based high throughput screening assay to identify antagonists of the 5-Hydroxytryptamine Receptor Subtype 1E (5HT1E). [Related pubchem assays: 1429, 485 ]; format: functional
[18] = molecular target: Sphingosine 1-phosphate receptor 3 (Homo sapiens, UniProt Q99500); test: Dose response cell-based high throughput screening assay for antagonists of the Sphingosine 1-Phosphate Receptor 3 (S1P3). [Related pubchem assays: 1429, 485 ]; format: functional
Cytochrome P450 2C19 = Cytochrome P450 2C19 (Homo sapiens, UniProt P33261); test: qHTS Assay for Inhibitors and Substrates of Cytochrome P450 2C19. [Related pubchem assays: 410 ]; format: ADME; details: read-out: Potency
[19] = molecular target: Aryl hydrocarbon receptor (Homo sapiens, UniProt P35869); test: Luminescence-based cell-based high throughput dose response assay for activators of the Aryl Hydrocarbon Receptor (AHR). [Related pubchem assays: 2796 (Primary screen (AHR activators in singlicate)), 2845 (Confirmation screen (AHR activators in triplicate)), 434939 (Counterscreen (PXR activators in triplicate)), 2804 (Summary (AHR activators))]; format: ADME
NADPH oxidase 1 = NADPH oxidase 1 (Homo sapiens, UniProt Q9Y5S8); format: functional, cell-based;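 further: Cell-based assay with luminescence read-out, IC50 derived from inhibitor dose-response curves; intracellular ROS from endogenous NOX1 in intact HT29 colon cancer cells; potency of inhibitors that lower the ROS luminescence signal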
[20] = molecular target: Peroxisome proliferator-activated receptor gamma/Nuclear receptor corepressor 2 (Homo sapiens, UniProt P37231+Q9Y618); test: Counterscreen for NR2E3 inverse agonists: TR-FRET-based biochemical high throughput dose response assay to identify inverse agonists of the interaction between peroxisome proliferator-activated receptor gamma (PPARg) and nuclear receptor co-repressor 2 (NCOR2).; format: functional
[21] = molecular target: Photoreceptor-specific nuclear receptor (Homo sapiens, UniProt Q9Y5X4); test: NR2E3 inverse agonists, dose response, biochemical, TR-FRET (AID 463256); format: functional
Sequence of Photoreceptor-specific nuclear receptor (Q9Y5X4 whole entry): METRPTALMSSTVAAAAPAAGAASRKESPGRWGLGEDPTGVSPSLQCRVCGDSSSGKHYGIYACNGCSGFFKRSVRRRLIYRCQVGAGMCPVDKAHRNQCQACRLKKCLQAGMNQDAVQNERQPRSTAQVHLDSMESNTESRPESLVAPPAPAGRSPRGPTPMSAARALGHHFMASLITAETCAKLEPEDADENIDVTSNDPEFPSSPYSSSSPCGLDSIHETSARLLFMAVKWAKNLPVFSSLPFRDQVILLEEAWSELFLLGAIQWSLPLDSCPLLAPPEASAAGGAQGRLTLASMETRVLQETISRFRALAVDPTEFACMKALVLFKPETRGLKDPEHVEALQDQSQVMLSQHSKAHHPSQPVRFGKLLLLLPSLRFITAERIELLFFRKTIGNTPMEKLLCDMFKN

T3 sequence (Q7T1G6 whole entry): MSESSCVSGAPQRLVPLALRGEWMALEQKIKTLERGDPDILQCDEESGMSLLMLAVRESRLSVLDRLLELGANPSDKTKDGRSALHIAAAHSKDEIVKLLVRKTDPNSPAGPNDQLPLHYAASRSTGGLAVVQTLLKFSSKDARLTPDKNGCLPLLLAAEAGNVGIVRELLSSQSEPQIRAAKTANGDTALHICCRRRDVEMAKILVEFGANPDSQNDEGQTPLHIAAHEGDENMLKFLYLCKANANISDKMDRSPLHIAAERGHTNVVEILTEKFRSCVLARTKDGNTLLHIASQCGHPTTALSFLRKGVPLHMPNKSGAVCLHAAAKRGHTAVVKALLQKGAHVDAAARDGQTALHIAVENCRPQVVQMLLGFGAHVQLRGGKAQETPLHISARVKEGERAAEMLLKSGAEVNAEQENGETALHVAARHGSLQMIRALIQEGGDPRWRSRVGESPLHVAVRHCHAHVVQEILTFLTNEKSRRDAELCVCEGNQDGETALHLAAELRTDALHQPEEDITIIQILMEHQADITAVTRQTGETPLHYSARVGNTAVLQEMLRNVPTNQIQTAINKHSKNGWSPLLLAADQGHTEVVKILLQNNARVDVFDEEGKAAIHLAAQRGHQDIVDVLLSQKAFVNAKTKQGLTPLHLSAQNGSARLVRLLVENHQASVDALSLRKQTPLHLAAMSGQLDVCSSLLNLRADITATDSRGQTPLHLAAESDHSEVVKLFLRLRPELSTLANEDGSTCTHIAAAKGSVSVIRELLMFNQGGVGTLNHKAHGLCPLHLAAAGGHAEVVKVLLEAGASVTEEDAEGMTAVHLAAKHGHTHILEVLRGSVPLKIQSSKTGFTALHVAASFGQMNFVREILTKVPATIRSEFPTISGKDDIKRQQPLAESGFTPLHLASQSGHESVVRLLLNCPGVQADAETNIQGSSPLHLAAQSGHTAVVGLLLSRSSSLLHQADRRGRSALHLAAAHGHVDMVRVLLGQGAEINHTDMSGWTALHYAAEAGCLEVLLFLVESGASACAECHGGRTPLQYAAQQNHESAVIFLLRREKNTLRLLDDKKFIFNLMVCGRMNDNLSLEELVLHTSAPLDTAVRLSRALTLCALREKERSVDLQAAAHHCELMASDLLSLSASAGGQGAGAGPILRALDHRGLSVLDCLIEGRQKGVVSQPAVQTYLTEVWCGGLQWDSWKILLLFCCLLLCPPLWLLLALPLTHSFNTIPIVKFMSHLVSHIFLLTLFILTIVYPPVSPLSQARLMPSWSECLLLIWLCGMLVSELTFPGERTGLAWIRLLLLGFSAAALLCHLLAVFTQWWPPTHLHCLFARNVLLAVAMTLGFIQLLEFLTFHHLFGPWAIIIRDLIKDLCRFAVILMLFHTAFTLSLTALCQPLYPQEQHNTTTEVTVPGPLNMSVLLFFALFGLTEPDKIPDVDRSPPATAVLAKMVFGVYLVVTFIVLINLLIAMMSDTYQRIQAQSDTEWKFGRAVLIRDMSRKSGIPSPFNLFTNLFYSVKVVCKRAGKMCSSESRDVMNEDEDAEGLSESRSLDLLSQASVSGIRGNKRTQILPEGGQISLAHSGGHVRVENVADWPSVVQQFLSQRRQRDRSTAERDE
Sequence of Aryl hydrocarbon receptor (P35869 whole entry): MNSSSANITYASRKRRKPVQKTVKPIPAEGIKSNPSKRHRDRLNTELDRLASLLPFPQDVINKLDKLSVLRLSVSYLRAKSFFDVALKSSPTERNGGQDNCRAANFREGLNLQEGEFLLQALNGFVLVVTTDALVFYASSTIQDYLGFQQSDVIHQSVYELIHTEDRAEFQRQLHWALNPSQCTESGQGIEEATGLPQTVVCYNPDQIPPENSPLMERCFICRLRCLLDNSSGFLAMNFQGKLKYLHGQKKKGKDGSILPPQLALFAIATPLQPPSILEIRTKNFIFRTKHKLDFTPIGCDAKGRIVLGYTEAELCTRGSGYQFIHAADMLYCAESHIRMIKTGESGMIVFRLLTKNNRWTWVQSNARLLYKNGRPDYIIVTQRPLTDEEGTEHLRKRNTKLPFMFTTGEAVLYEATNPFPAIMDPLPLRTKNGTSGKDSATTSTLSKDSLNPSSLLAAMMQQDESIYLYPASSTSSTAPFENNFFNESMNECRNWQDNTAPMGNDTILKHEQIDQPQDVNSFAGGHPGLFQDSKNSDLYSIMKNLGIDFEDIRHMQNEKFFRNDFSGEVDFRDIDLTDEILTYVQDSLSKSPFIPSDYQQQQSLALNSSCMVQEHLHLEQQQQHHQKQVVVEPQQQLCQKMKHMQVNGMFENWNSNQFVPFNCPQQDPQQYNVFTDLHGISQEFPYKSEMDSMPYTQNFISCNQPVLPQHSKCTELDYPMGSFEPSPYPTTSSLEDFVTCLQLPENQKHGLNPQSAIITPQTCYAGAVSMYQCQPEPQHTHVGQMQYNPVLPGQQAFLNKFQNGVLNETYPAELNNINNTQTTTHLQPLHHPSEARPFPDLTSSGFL
Sequence of Sphingosine 1-phosphate receptor 3 (Q99500 whole entry): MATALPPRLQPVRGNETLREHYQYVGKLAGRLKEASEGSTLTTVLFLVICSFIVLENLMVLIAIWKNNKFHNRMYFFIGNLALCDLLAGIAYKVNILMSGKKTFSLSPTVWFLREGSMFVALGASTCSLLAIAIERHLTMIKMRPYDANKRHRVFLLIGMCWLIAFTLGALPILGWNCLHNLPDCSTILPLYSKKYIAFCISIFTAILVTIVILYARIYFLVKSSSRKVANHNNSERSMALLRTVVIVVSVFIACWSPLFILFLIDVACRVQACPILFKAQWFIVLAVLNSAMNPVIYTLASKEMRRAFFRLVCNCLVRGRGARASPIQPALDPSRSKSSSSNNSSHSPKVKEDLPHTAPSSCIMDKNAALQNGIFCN
Sequence of 5-hydroxytryptamine receptor 1E (P28566 whole entry): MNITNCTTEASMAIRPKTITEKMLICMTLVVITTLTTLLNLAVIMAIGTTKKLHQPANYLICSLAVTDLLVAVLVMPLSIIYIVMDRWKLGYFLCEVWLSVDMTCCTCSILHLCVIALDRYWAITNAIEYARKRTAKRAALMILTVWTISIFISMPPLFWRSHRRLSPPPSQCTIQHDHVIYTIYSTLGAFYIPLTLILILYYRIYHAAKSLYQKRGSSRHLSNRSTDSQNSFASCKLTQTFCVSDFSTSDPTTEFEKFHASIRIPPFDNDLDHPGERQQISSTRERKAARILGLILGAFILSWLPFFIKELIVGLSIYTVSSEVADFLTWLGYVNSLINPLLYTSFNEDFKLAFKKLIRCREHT
Sequence of NADPH oxidase 1 (Q9Y5S8 whole entry): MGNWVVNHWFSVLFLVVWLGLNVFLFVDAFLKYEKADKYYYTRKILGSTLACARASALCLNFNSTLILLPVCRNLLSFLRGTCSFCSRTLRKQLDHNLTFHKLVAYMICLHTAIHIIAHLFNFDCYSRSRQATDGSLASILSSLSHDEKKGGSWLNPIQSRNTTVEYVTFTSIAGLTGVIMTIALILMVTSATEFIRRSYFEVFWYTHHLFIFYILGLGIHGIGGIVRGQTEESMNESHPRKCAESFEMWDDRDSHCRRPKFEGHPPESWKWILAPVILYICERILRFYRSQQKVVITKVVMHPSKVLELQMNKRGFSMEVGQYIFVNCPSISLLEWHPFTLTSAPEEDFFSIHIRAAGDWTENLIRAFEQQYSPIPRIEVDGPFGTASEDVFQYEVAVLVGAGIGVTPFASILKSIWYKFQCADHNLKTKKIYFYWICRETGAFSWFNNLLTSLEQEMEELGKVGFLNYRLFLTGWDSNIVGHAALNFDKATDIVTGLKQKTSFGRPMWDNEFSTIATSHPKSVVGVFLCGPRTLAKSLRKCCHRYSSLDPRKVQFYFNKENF
Sequence of Glyceraldehyde-3-phosphate dehydrogenase (P04406 whole entry): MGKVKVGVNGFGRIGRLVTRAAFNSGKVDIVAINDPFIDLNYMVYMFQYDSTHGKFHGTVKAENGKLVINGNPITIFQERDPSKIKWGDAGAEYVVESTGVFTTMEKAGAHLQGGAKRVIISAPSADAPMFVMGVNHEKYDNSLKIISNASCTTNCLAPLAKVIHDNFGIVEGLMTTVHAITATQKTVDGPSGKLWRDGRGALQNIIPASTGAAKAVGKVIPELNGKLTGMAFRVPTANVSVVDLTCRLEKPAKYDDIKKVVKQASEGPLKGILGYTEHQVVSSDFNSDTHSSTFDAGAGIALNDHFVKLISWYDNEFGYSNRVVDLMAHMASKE
Sequence of Cytochrome P450 2C19 (P33261 whole entry): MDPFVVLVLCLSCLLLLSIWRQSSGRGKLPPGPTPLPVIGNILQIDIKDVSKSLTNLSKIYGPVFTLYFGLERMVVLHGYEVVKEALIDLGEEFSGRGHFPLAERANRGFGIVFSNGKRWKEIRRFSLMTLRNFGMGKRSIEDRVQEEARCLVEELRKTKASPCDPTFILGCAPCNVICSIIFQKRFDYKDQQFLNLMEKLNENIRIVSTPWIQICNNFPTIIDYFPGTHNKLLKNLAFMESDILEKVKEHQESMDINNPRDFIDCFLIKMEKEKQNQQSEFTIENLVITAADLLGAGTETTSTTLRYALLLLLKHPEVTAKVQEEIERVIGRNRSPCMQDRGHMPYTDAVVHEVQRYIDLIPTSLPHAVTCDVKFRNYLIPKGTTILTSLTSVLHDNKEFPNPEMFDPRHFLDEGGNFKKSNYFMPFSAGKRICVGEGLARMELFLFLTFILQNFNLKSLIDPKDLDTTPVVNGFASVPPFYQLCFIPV

## O=C1C(Cl)=C(NCc2ccccc2)C(=O)N1c1ccc(Cl)c(Cl)c1
[1]
  IC50: > 100 µM (not active)
Bcl-2-related protein A1 [2]
  IC50: 73.7 µM (active)
Bcl-2-related protein A1 [3]
  IC50: > 100 µM (not active)

## CCCOc1cc(C)c(Cl)cc1S(=O)(=O)N(CC)CC
Mucolipin-3 [4]
  EC50: 4.72 µM (active)
Mucolipin-3 [5]
  EC50: 1.6 µM (active)
Ion channel NompC [6]
  EC50: > 29.9 µM (not active)
Ion channel NompC [7]
  EC50: > 29.9 µM (not active)

## [O-]/[N+](=C\c1ccc(OC(F)F)cc1)c1ccccc1
[8]
  IC50: > 100 µM (not active)
[9]
  EC50: > 260 µM (inactive)

## CC(NC(=O)c1ccc(Br)cc1Br)c1ccccc1 (centres undefined)
[10]
  EC50: > 120 µM (not active)

## N#C/C(=C1\CCCN1)c1nc(-c2ccccc2)cs1
[11]
  IC50: > 100 µM (active)
CHO-K1
  IC50: > 66.2 µM (inactive)
[12]
  IC50: > 49.8 µM (inactive)
[13]
  IC50: 2.44 µM (active)
[14]
  IC50: 7.67 µM (active)
Orexin receptor type 2 [15]
  IC50: > 88.8 µM (inactive)
Orexin receptor type 2 [16]
  IC50: > 50 µM (inactive)

## O=C(CSc1nnc(-c2ccc(Br)o2)n1Cc1ccccc1)c1ccccc1F
[17]
  IC50: > 50 µM (not active)
[18]
  IC50: > 50 µM (not active)

## CC(C)C[C@@H](CC(=O)N[C@H](CC(=O)N[C@@H]1CCNC[C@H]1C(=O)N[C@H](CC(=O)N[C@@H](CCC(=O)O)CC(=O)O)Cc1ccccc1)C(C)C)NC(=O)[C@@H]1CCCC[C@H]1N
Cytochrome P450 2C19
  AC50: 39.8 µM (inconclusive)

## CCOc1ccc(-c2cc(C)n3nc(C(N)=O)cc3n2)cc1
[19]
  EC50: 2.63 µM (active)

## COc1ccc2c(Cl)c(C(=O)Oc3ccccc3Cl)sc2c1
NADPH oxidase 1
  IC50: > 17 µM (not active)

## Cc1cc(=O)oc2cc(OCC(=O)NCCc3c[nH]c4ccc(F)cc34)ccc12
[20]
  IC50: 8.78 µM (active)
[21]
  IC50: 6.11 µM (active)
